In patent publication US8119563B2, “N-substituted azacycles” (FMC Corporation, priority 2003, dated 2012):

System: tobacco budworm (Heliothis virescens [Fabricius])
Test: surface-treated diet test, insecticidal activity against tobacco budworm
Assay type: in vivo
Design: mortality: concentration or dose not given beside the values
Conditions: 0.25 millimoles of candidate insecticide on the surface of the diet, second instar larvae, five-day exposure
Summary of the method: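 Second-instar larvae (~5 mg) were held five days at 25° C and 60% RH on artificial diet whose surface carried dried compound (0.25 millimolar standard rate; DMSO serial dilutions for rate series, six replicates each). Readouts: mortality and weight inhibition relative to DMSO-treated controls.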

[1] = compared to total number of insects infested
[2] = inhibition of insect weight relative to untreated controls

| Compound | Percent Mortality [1] [%] | Percent Growth Inhibition [2] [%] | mortality (Heliothis virescens, 120 h, compared to total number of insects infested, read-out: Percent Mortality) [%] | pest or weed control at 0.25 mmol/well (Heliothis virescens, 120 h, inhibition of insect weight relative to untreated controls, read-out: Percent Growth Inhibition) [%] |
| --- | --- | --- | --- | --- |
| CCON=Cc1ccc(CN2CCC(O)(C(c3ccc(OC(F)(F)F)cc3)c3ccc(Cl)cc3Cl)CC2)cc1 (centres unmarked) [Compound 444] | 100 | 100 |  |  |
| CCCOC(=O)Nc1ccc(CN2CCC(O)(C(c3ccc(OC(F)(F)F)cc3)c3ccc(OC(F)(F)F)cc3)CC2)cc1 [Compound 310] | 100 | 100 |  |  |
| Cc1cccc(Oc2ccc(CN3CCC(O)(C(c4ccc(OC(F)(F)F)cc4)c4ccc(OC(F)(F)F)cc4)CC3)cc2)n1 [Compound 276] | 100 | 100 |  |  |
| [O-][N+]1(Cc2ccc(Oc3ccccn3)cc2)CCC(O)(C(c2ccc(OC(F)(F)F)cc2)c2ccc(OC(F)(F)F)cc2)CC1 (centres unmarked) [Compound 117, 4-{bis[4-(trifluoromethoxy)phenyl]methyl}-4-hydroxy-1-[(4-(2-pyridyloxy)phenyl)methyl]piperidin-1-oxide] |  |  | 100 | 100 |
| CCON=Cc1ccc(C(c2ccc(OC(F)(F)F)cc2)C2(O)CCN(Cc3ccc(Oc4ccccn4)cc3)CC2)cc1 (centres unmarked) [Compound 440] | 100 | 100 |  |  |
| O=C([O-])CO.OC1(C(c2ccc(OC(F)(F)F)cc2)c2ccc(OC(F)(F)F)cc2)CC[N+](O)(Cc2ccc(Oc3ccccn3)cc2)CC1 (centres unmarked) [Compound 510] | 100 | 100 |  |  |
| [O-][N+]1(Cc2ccc(Oc3ccc(Cl)nn3)cc2)CCC(O)(C(c2ccc(OC(F)(F)F)cc2)c2ccc(OC(F)(F)F)cc2)CC1 (centres unmarked) [Compound 412] | 100 | 100 |  |  |
| NC(=O)CON=Cc1ccc(C[N+]2(O)CCC(O)(C(c3ccc(OC(F)(F)F)cc3)c3ccc(OC(F)(F)F)cc3)CC2)cc1.O=C(O)CC(O)(CC(=O)O)C(=O)[O-] (centres unmarked) [Compound 489] | 100 | 100 |  |  |
| CC(=O)OCC1(C(c2ccc(C(F)(F)F)cc2)c2ccc(C(F)(F)F)cc2)CC[N+]([O-])(Cc2ccc(Oc3ncccn3)cc2)CC1 (centres unmarked) [Compound 468] | 17 | 100 |  |  |
| CCn1nnc(-c2ccc(CN3CCC(O)(C(c4ccc(Cl)c(Cl)c4)c4ccc(Cl)c(Cl)c4)CC3)cc2)n1 [Compound 26] | 100 | 100 |  |  |
| CCOCON=Cc1ccc(CN2CCC(O)(C(c3ccc(OC(F)(F)F)cc3)c3ccc(OC(F)(F)F)cc3)CC2)cc1 [Compound 259] | 100 | 100 |  |  |
| CCCCC(CC)C(=O)[O-].CCON=Cc1ccc(C[N+]2(O)CCC(O)(C(c3ccc(OC(F)(F)F)cc3)c3ccc(OC(F)(F)F)cc3)CC2)cc1 (centres unmarked) [Compound 486] | 100 | 100 |  |  |
| Cc1cccnc1Oc1ccc(CN2CCC(O)(C(c3ccc(OC(F)(F)F)cc3)c3ccc(OC(F)(F)F)cc3)CC2)cc1 [Compound 271] | 100 | 100 |  |  |
| CCON=Cc1ccc(C[N+]2(O)CCC(O)(C(c3ccc(OC(F)(F)F)cc3)c3ccc(OC(F)(F)F)cc3)CC2)cc1.O=S(=O)([O-])CCCO (centres unmarked) [Compound 483] | 100 | 100 |  |  |
| O=C(NC1CCCCC1)Oc1ccc(CN2CCC(O)(C(c3ccc(OC(F)(F)F)cc3)c3ccc(OC(F)(F)F)cc3)CC2)cc1 [Compound 329] | 67 | 100 |  |  |
| OCC1(C(c2ccc(C(F)(F)F)cc2)c2ccc(C(F)(F)F)cc2)CCN(Cc2ccc(Oc3ncccn3)cc2)CC1 [Compound 448] | 0 | 96 |  |  |
